Results published in publication PMC10221314 (Pharmaceuticals, 2023).
“Also recorded” adds a separate entry of the source.

Tests used:
[1] = test system: LX-2 cells; assay: mRNA expression of liver fibrosis marker genes in TGFβ1-induced LX-2 cells; type: cell-based; settings: 10 μM, induced by 2 ng·mL^−1 TGFβ1, 24 h
Experimental: (§1) Cells and liver tissue samples were subjected to RNA extraction and purification, followed by reverse transcription of equal amounts of total RNA into […] using a Transcriptor First Strand cDNA Synthesis Kit (Roche). The relative expression levels of the target gene were determined using TaqMan probe/primers with an ABI Q3 quantitative real-time PCR system, while GAPDH/Gapdh was utilized as an internal control for mRNA expression. The fold change in the expression of the target mRNA was calculated using Equation 2^−ΔΔCt.
(A–E) The LX-2 cells underwent a 24 h treatment of 2 ng·mL^−1 TGFβ1, with or without varying concentrations of candidate compounds, following FBS starvation. […] GAPDH/GAPDH was used as the loading control. The mean ± SD values were obtained from three independent assays. […] ANOVA was followed by Tukey’s test for statistical analysis.

[2] = design: method as in PMID 34970143; settings: 120 mg·Kg^−1; cited from earlier work
[3] = test system: HFD mice; design: method as in PMID 30635917; settings: 100 mg·Kg^−1; cited from earlier work
[4] = test system: FXR downstream genes; assay: mRNA expression of FXR downstream genes in HepG2 cells (qRT-PCR); type: cell-based; settings: 50 μM, 24 h
Experimental: as §1
(A) Relative mRNA level of SHP; (B) Relative mRNA level of BSEP; (C) Relative mRNA level of CYP7A1; (D) Relative mRNA level of SREBP1c; (E) Relative mRNA level of PEPCK; (F) Expression level of G6Pase. HepG2 cells were seeded in a 6-well plate and treated with DMSO and varying concentrations of compound 10b for 24 h with or without 50 μM of 1. The mRNA levels of SHP, BSEP, CYP7A1, SREBP1c, PEPCK, and G6Pase were quantified and normalized to β-actin expression.

[5] = test system: RXRα, RXRβ, RXRγ, LXRα, LXRβ, PXR, PPARα, PPARβ, PPARγ, and GPBAR; assay: NR selectivity one-hybrid assay in HEK-293T cells (panel of metabolic NRs); type: cell-based; settings: with corresponding agonists
Experimental: To assess the compound’s specificity, the mammalian one-hybrid assay was conducted. In this assay, HEK-293T cells were co-transfected with a fusion plasmid of Gal4 DBD-NR LBD (comprising RXRα, RXRβ, RXRγ, PPARα, PPARβ, PPARγ, LXRα, LXRβ, GPBAR, and PXR) and the UAS-TK-Luc reporter, followed by treatment with various concentrations of the compound. The positive control consisted of the corresponding nuclear receptor agonist, and the concentration used in the experiment was set to the EC50 of the agonist.
Figure 3 Compound 10b selectively antagonized FXR. The impact of compound 10b on various NRs was evaluated using a […] one-hybrid assay in HEK-293T cells. The cells were transiently co-transfected with a fusion plasmid of Gal4 DBD-NR-LBD, which included PPARα, PPARβ, PPARγ, RXRα, RXRβ, RXRγ, LXRα, LXRβ, GPBAR, PXR, and FXR, in combination with the UAS-TK-Luc reporter. […] The values are expressed as the means ± SE of three independent experiments. *: p < 0.05 vs. RA (relative agonist).

[6] = test system: FXR downstream genes; settings: previous study; cited from earlier work
[7] = molecular target: T1, FXR (Homo sapiens, UniProt Q96RI1); assay: Yeast one-hybrid assay of FXR antagonistic activity in HEK-293T cells; type: cell-based; settings: HEK-293T cells; CDCA (50 μM) as agonist; mean ± SE of three independent tests
T1 construct: a fusion plasmid of Gal4 DBD-NR-LBD, which included PPARα, PPARβ, PPARγ, RXRα, RXRβ, RXRγ, LXRα, LXRβ, GPBAR, PXR, and FXR; expressed in transfected cells; host or cells: HEK-293T
T1 sequence (Q96RI1 262-486 limits assumed): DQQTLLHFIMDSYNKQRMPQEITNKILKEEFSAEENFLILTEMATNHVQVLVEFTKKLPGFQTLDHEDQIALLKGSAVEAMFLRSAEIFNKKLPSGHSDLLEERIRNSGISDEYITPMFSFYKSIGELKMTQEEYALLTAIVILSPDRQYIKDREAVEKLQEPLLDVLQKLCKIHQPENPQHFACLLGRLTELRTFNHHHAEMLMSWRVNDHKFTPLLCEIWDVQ
Experimental: Cell counting: HEK-293T cells in logarithmic growth phase were digested with 0.25% trypsin, collected, and centrifuged. The trypsin-containing medium was discarded, and 2 mL of fresh phenol red-free DMEM medium containing 5% fetal bovine serum was added. The cells were then mixed with the medium to prepare a cell suspension and counted on a cell counting plate.
Cell plating: A determined number of cells were taken from the cell suspension, diluted with phenol red-free DMEM medium containing 5% fetal bovine serum, and plated at a concentration of 10,000 cells per well (100 µL medium) in a 96-well plate. The plate was then incubated at 37 °C and 5% CO2 for 24 h.
Cell transfection: Fresh phenol red-free DMEM medium was taken in a sterile environment, and the previously extracted pFXR-Binding plasmid and PG4.35[luc2P-9XGA4UAS-Hygro] plasmid were added. The mixture was stirred and allowed to stand at 23 °C for 3 min. Then, a 3% amount of transfection reagent was added to the mixture, and it was allowed to stand at 23 °C for 15 min. The mixture was then added to the 96-well plate at a volume of 10 µL per well and incubated at 37 °C in a 5% CO2 environment for 24 h.
The OA derivatives were prepared as 10 mM DMSO stock solutions and further diluted in a concentration gradient, with 10 µL added to each well. The final concentrations of the derivatives ranged from 10 µM to 0.03 µM, with 7 concentration gradients using […] dilution. The test was set with 3 duplicated wells.
Antagonism activity test: The firefly-Renilla Dual Fluorescence Assay Kit (Promega, #E2940, Madison, WI, USA) was used to measure the antagonism activity of the OA derivatives. Firstly, the firefly fluorescence reagent was added to the 96-well plate at a volume of 70 µL per well and shaken in darkness for 15 min. Then, the fluorescence intensity was measured at a wavelength of 645 ± 30 nm in a microplate reader (BioTek, Winooski, VT, USA). Next, the volume of Renilla reagent was added to the 96-well plate at a volume of 70 µL per well and shaken in darkness for 15 min. The fluorescence intensity was then measured at a wavelength of 525 ± 20 nm.
Data processing: The fluorescence data of firefly were divided by the fluorescence data of Renilla to remove errors, and the antagonism efficiency was calculated using the following formula: antagonism efficiency (%) = [1 − (FCompds. − FDMSO)/(FCDCA − FDMSO)] × 100%. In the formula, F represents fluorescence intensity. The antagonistic efficiency data were obtained as a concentration–effect curve using Graphpad Prism 8.0 software, and the corresponding IC50 value was calculated.

CC[C@H]1[C@@H](O)[C@@H]2[C@H](CC[C@]3(C)[C@@H]([C@H](C)CCC(=O)O)CC[C@@H]23)[C@@]2(C)CC[C@@H](O)C[C@@H]12 [OCA, obeticholic acid, reference compound]
mRNA expression of CTGF [1]: decreased

C[C@@H]1CC[C@]2(C(=O)O[C@@H]3O[C@H](CO)[C@@H](O)[C@H](O)[C@H]3O)CC[C@]3(C)C(=CC[C@@H]4[C@@]5(C)CC[C@H](O)[C@](C)(C(=O)O)[C@@H]5CC[C@]43C)[C@@H]2[C@]1(C)O [IsA, Ilexsaponin A1]
liver TC levels [2]: reducing | liver TG [2]: reducing | serum TG [2]: reducing

C=C(C)[C@@H]1CC[C@]2(C(=O)O)CC[C@]3(C)[C@H](CC[C@@H]4[C@@]5(C)CC[C@H](O)C(C)(C)[C@@H]5CC[C@]43C)[C@@H]12 [BA, Betulinic acid]
liver TC levels [3]: reduce | liver TG levels [3]: reduce

C[C@H](CCC(=O)O)[C@H]1CC[C@H]2[C@@H]3[C@H](O)C[C@@H]4C[C@H](O)CC[C@]4(C)[C@H]3CC[C@]12C [CDCA, Chenodeoxycholic acid, reference compound]
expression of CYP7A1 (mRNA) [4]: decrease

C/C=C1\C(=O)C[C@H]2[C@@H]3CCC4=CC(=O)CC[C@]4(C)[C@H]3CC[C@]12C [guggulsterone, reference compound]
antagonism of metabolic NRs [5]: Most NRs were antagonized | mRNA expression of ACTA2 [1]: significantly decreased | mRNA expression of COL1A1 [1]: significantly decreased

CC(=O)CCCC(=O)OC1CC2C3(C)CCC(O)C(C)(C)C3CCC2(C)C2(C)CCC3(C(=O)O)CCC(C)(C)CC3C12 (stereo not shown) [Compound 7]
CYP7A1 gene expression [6]: downregulated; also recorded: significantly reduces | G6Pase expression [6]: significantly reduces | PEPCK expression [6]: significantly reduces

CCC(C)OC(=O)C(CCC(=O)OC1CC2C3(C)CCC(O)C(C)(C)C3CCC2(C)C2(C)CCC3(C(=O)O)CCC(C)(C)CC3C12)NC(=O)OC(C)(C)C [Compound 20f, 3β-hydroxy-12β-(4′-((tert-butoxycarbonyl)amide)-5′-(sec-butoxy)-L-glutamate)oxy-13H-olean-28-oic acid]
IC50 [7]: 1010 ± 180 nM

CC(C)OC(=O)C(CCC(=O)OC1CC2C3(C)CCC(O)C(C)(C)C3CCC2(C)C2(C)CCC3(C(=O)O)CCC(C)(C)CC3C12)NC(=O)OC(C)(C)C [Compound 20d, 3β-hydroxy-12β-(4′-((tert-butoxycarbonyl)amide)-5′-isopropoxy-L-glutamate)oxy-13H-olean-28-oic acid]
IC50 [7]: 550 ± 90 nM

CCCOC(=O)C(CCC(=O)OC1CC2C3(C)CCC(O)C(C)(C)C3CCC2(C)C2(C)CCC3(C(=O)O)CCC(C)(C)CC3C12)NC(=O)OC(C)(C)C [Compound 20c, 3β-hydroxy-12β-(4′-((tert-butoxycarbonyl)amide)-5′-propoxy-L-glutamate)oxy-13H-olean-28-oic acid]
IC50 [7]: 560 ± 130 nM
